As a reminder, the chromatographic logP is a lipophilicity value derived from retention on a column. A high value points to a more lipophilic compound. The logP is a log measure of how a compound divides between an organic and an aqueous phase. Low readings indicate a more hydrophilic compound, high ones a more lipophilic compound.

The subject of one data set is Puccinia recondita. Nature of the data set: In vivo test on Puccinia recondita (brown rust). The following applies: 500 ppm of active ingredient; wheat plants sprayed 24 hours before contamination; grading 12 days after contamination vs control plants. Here is the method:
(§1) The active ingredients tested are prepared by homogenization in a mixture of acetone/tween/DMSO, and then diluted with water to obtain the desired active material concentration.
(§2) Wheat plants (“Scipion” variety), sown in starter cups on a 50/50 peat soil pozzolana substrate and grown at 22° C., are treated at the 1 leaf stage (10 cm height) by spraying with the active ingredient prepared as described above. Plants, used as controls, are treated with the mixture of acetone/tween/DMSO/water not containing the active material.
After 24 hours, the plants are contaminated by spraying the leaves with an aqueous suspension of Puccinia recondita spores (100 000 spores per mL). The spores are collected from an infected plant and are suspended in water containing 2.5 mL/L of Tween 80 at 10%. The contaminated wheat plants are incubated for 24 hours at 20° C. and at 100% relative humidity, and then for 10 days at 20° C. and at 70-80% relative humidity.
(§3) Grading (% of efficacy) is carried out 12 days after the contamination, in comparison with the control plants.
Under these conditions, good (at least 70%) to excellent (at least 90%) protection is observed at a dose of 500 ppm of active ingredient with the following compounds from table C: […]

In a further data set the test system is Sphaerotheca fuliginea. Nature of the data set: In vivo test on Sphaerotheca fuliginea (cucurbits powdery mildew). The settings on record: 500 ppm of active ingredient; gherkin plants sprayed 24 hours before contamination; grading 12 days after contamination vs control plants. Here is the method:
(§4) The active ingredients tested are prepared by homogenization in a mixture of acetone/tween/DMSO and then diluted with water to obtain the desired active material concentration.
Gherkin plants (“Vert petit de Paris” variety), sown in starter cups on a 50/50 peat soil-pozzolana substrate and grown at 24° C., are treated at the Z11 cotyledon stage by spraying with the active ingredient prepared as described above. Plants, used as controls, are treated with the mixture of acetone/tween/DMSO/water not containing the active material.
After 24 hours, the plants are contaminated by spraying the cotyledons with an aqueous suspension of Sphaerotheca fuliginea spores (100 000 spores per mL). The spores are collected from infected plants. The contaminated gherkin plants are incubated at about 20° C. and at 70-80% relative humidity.
as §3
Under these conditions, good (at least 70%) to total protection is observed at a dose of 500 ppm of active ingredient with the following compounds from table A: […]

A further data set has as its system Septoria tritici. Put plainly: In vivo preventive test on Septoria tritici (wheat). The following applies: 500 ppm of active ingredient; wheat plants sprayed 24 hours before contamination; grading 24 days after contamination vs control plants. Here is the method:
as §1, §2
After 24 hours, the plants are contaminated by spraying the leaves with an aqueous suspension of cryopreserved Septoria tritici spores (500 000 spores per mL). The contaminated wheat plants are incubated for 72 hours at 18° C. and at 100% relative humidity, and then for 21 days at 90% relative humidity.
Grading (% of efficacy) is carried out 24 days after the contamination, in comparison with the control plants.
Under these conditions, good (at least 70%) to total protection is observed at a dose of 500 ppm of active ingredient with the following compounds from table F: […]

A short description of data set [1]: log P by HPLC on reversed-phase column (C 18), EEC Directive 79/831 Annex V.A8. It is filed as physicochemical. The settings on record: Table 1, compounds of formula (I); HPLC C 18, 40° C., 0.1% aqueous formic acid and acetonitrile, gradient 10% to 90% acetonitrile. Here is the method: In table 1, the log P values were determined in accordance with EEC Directive 79/831 Annex V.A8 by HPLC (High Performance Liquid Chromatography) on a reversed-phase column (C 18), using the method described below:
Temperature: 40° C.; Mobile phases: 0.1% aqueous formic acid and acetonitrile; linear gradient from 10% acetonitrile to 90% acetonitrile.
Calibration was carried out using unbranched alkan-2-ones (comprising 3 to 16 carbon atoms) with known log P values (determination of the log P values by the retention times using linear interpolation between two successive alkanones). lambda-max-values were determined using UV-spectra from 200 nm to 400 nm and the peak values of the chromatographic signals.
In table 2, M+H (Apcl+) and log P are defined as for table 1.

A further data set relates to Uromyces appendiculatus. Put plainly: In vivo preventive test on Uromyces appendiculatus (bean rust). The following applies: 500 ppm of active ingredient; bean plants sprayed 24 hours before contamination; grading 11 days after contamination vs control plants. Here is the method: as §1
Bean plants (“Saxa” variety), sown in starter cups on a 50/50 peat soil pozzolana substrate and grown at 24° C., are treated at the 2 leaf stage (9 cm height) by spraying with the active ingredient prepared as described above. Plants, used as controls, are treated with the mixture of acetone/tween/DMSO/water not containing the active material.
After 24 hours, the plants are contaminated by spraying the leaves with an aqueous suspension of Uromyces appendiculatus spores (150 000 spores per mL). The spores are collected from infected plants and are suspended in water containing 2.5 mL/L of Tween 80 at 10%. The contaminated bean plants are incubated for 24 hours at 20° C. and at 100% relative humidity, and then for 10 days at 20° C. and at 70-80% relative humidity.
Grading (% of efficacy) is carried out 11 days after the contamination, in comparison with the control plants.
Under these conditions, good (at least 70%) to total protection is observed at a dose of 500 ppm of active ingredient with the following compounds from table G: […]

The next data set concerns Alternaria brassicae. Put plainly: In vivo preventive test on Alternaria brassicae (leaf spot on radish). The following applies: 500 ppm of active ingredient; radish plants sprayed 24 hours before contamination; grading 6 days after contamination vs control plants. Here is the method:
as §1
Radish plants (“Pernod Clair” variety), sown in starter cups on a 50/50 peat soil pozzolana substrate and grown at 17° C., are treated at the cotyledon stage by spraying with the active ingredient prepared as described above. Plants, used as controls, are treated with the mixture of acetone/tween/DMSO/water not containing the active material.
After 24 hours, the plants are contaminated by spraying the cotyledons with an aqueous suspension of Alternaria brassicae spores (50 000 spores per mL). The spores are collected from a 15-day-old culture. The contaminated radish plants are incubated at 20° C. and at 100% relative humidity.
Grading (% of efficacy) is carried out 6 days after the contamination, in comparison with the control plants.
Under these conditions, good (at least 70%) to total protection is observed at a dose of 500 ppm of active ingredient with the following compounds from table D: […]

The test system of another data set is Pyrenophora teres. Nature of the data set: In vivo test on Pyrenophora teres (barley net blotch). The following applies: 500 ppm of active ingredient; barley plants sprayed 24 hours before contamination; grading 14 days after contamination vs control plants. Here is the method: as §1
Barley plants (“Plaisant” variety), sown in starter cups on a 50/50 peat soil pozzolana substrate and grown at 22° C., are treated at the 1 leaf stage (10 cm height) by spraying with the active ingredient prepared as described above. Plants, used as controls, are treated with the mixture of acetone/tween/DMSO/water not containing the active material.
After 24 hours, the plants are contaminated by spraying the leaves with an aqueous suspension of Pyrenophora teres spores (12 000 spores per mL). The spores are collected from a 12-day-old culture. The contaminated barley plants are incubated for 48 hours at 20° C. and at 100% relative humidity, and then for 12 days at 20° C. at 70-80% relative humidity.
Grading (% of efficacy) is carried out 14 days after the contamination, in comparison with the control plants.
Under these conditions, good (at least 70%) to excellent (at least 90%) protection is observed at a dose of 500 ppm of active ingredient with the following compounds from table B: […]

The subject of a further data set is Botrytis cinerea. Put plainly: In vivo preventive test on Botrytis cinerea (grey mould). The settings on record: 500 ppm of active ingredient; gherkin plants sprayed 24 hours before contamination; grading 4 to 5 days after contamination vs control plants. Here is the method:
as §4
Gherkin plants (“Vert petit de Paris” variety), sown in starter cups on a 50/50 peat soil pozzolana substrate and grown at 24° C., are treated at the Z11 cotyledon stage by spraying with the active ingredient prepared as described above. Plants, used as controls, are treated with the mixture of acetone/tween/DMSO/water not containing the active material.
After 24 hours, the plants are contaminated by spraying the cotyledons with an aqueous suspension of cryopreserved Botrytis cinerea spores (50 000 spores per mL). The spores are suspended in a nutrient solution composed of 10 g/L of PDB, 50 g/L of D-Fructose, 2 g/L of NH4NO3 and 1 g/L of KH2PO4. The contaminated gherkin plants are incubated at 17° C. and at 90% relative humidity.
Grading (% of efficacy) is carried out 4 to 5 days after the contamination, in comparison with the control plants.
Under these conditions, good (at least 70%) is observed at a dose of 500 ppm of active ingredient with the following compound from table E: […]

Turning to `Cc1nn(C)c(F)c1C(=O)N(Cc1ccccc1[Si](C)(C)c1ccccc1)C1CC1` [I.1, N-cyclopropyl-N-{2-[dimethyl(phenyl)silyl]benzyl}-5-fluoro-1,3-dimethyl-1H-pyrazole-4-carboxamide], the Efficacy is recorded as 92% in the data set on Puccinia recondita, 100% in the data set on Sphaerotheca fuliginea, 96% in the data set with Septoria tritici and 93% in the data set with Uromyces appendiculatus. This molecule gave a chromatographic logP in data set [1] of 4.24.

With `Cn1cc(C(=O)N(Cc2ccccc2[Si](C)(C)c2ccccc2)C2CC2)c(C(F)F)n1` [I.3], the Efficacy in the data set on Puccinia recondita is listed as 83%; with Sphaerotheca fuliginea it was 93%; in the data set with Septoria tritici, 80%; in the data set with Uromyces appendiculatus, 93%. Besides, the log partition coefficient (logP) in data set [1] came out at 4.41.

Regarding `Cn1nc(C(F)F)c(C(=O)N(Cc2ccccc2[Si](C)(C)c2ccccc2)C2CC2)c1F` [I.4], the Efficacy was found to be 92% in the data set on Puccinia recondita, 100% in the data set with Sphaerotheca fuliginea, 100% with Septoria tritici and 100% in the data set with Uromyces appendiculatus. In addition, in data set [1], the logP was found to be 4.78.

For the molecule `Cn1nc(C(F)F)c(C(=S)N(Cc2ccccc2[Si](C)(C)c2ccc(Cl)cc2)C2CC2)c1F` [I.8], the Efficacy worked out at 88% with Puccinia recondita; 88% with Alternaria brassicae; 100% with Sphaerotheca fuliginea; 97% with Septoria tritici; 97% in the data set on Uromyces appendiculatus. In addition, the logP in data set [1] is 3.09.

In the case of `Cn1nc(C(F)F)c(C(=O)N(Cc2ccccc2[Si](C)(C)c2ccc(Oc3ccccc3)cc2)C2CC2)c1F` [I.19], the Efficacy with Puccinia recondita worked out at 93%; in the data set on Sphaerotheca fuliginea, 100%; in the data set with Septoria tritici, 100%; with Uromyces appendiculatus, 96%; in the data set on Pyrenophora teres, 97%. Moreover, in data set [1], the logP was determined as 5.68.

On to `Cn1cc(C(=O)N(Cc2ccccc2[Si](C)(C)c2ccc(Oc3ccccc3)cc2)C2CC2)c(C(F)F)n1` [I.20], for which the Efficacy in the data set with Sphaerotheca fuliginea turned out to be 83%; in the data set with Septoria tritici, 75%; in the data set with Uromyces appendiculatus, 89%; with Pyrenophora teres, 79%. Also, the logP in data set [1] came out at 5.31.

Take `Cn1nc(C(F)F)c(C(=O)N(Cc2ccccc2[Si](C)(C)c2cccc3ccccc23)C2CC2)c1F` [I.25]: the Efficacy in the data set with Alternaria brassicae is given as 80%; in the data set with Sphaerotheca fuliginea, 100%; in the data set on Septoria tritici, 100%; in the data set with Uromyces appendiculatus, 86%. This molecule also returned a lipophilicity (logP) in data set [1] of 5.19.

Take `C[Si](C)(c1ccccc1CN(C(=O)c1ccsc1I)C1CC1)c1cccc2ccccc12` [I.29]: in data set [1], the logP is 5.84. For the same molecule, in the data set with Botrytis cinerea, the Efficacy is on record as 75%.

On to `Cn1cc(C(=O)N(Cc2ccccc2[Si](C)(C)c2cccs2)C2CC2)c(C(F)F)n1` [I.31], for which the Efficacy in the data set on Puccinia recondita was 75%; with Sphaerotheca fuliginea, 100%; with Septoria tritici, 96%; in the data set on Uromyces appendiculatus it was 96%. The molecule also yielded a logP in data set [1] of 4.24.
